Like-named read-outs stand apart in the source and are kept apart here.
What was measured:
[1] = tested on: MCF7 cells stably expressing DOX-inducible ER Y537S; test: Dose response cell counting in MCF7 cells with DOX-inducible HA-tagged ER Y537S; format: cell-based; conditions: for IC50: Homo sapiens, MCF7, 120 h, allele Y537S, cell count day 5, full medium
Protocol: (§1) MCF7 estrogen receptor alpha positive (ER^+) breast cancer cells were engineered to stably express doxycycline (DOX)-inducible hemagglutinin (HA)-tagged full length ER with ligand binding domain mutations Y537S and D538G. The introduction and expression of the mutants were confirmed by Sanger sequencing, RNA-sequencing, and western blot.
(§2) The dose response studies were performed in full medium conditions. Cells were treated with DOX for the induction of HA-tagged mutated ER or with vehicle as control, and plated in triplicate. Subsequently, on day 5, cell counting was performed using the Celigo instrument with Hoechst dye staining to detect nucleated live cells and propidium iodide to quantify dead cells.
(§3) IC50 values were calculated using PRISM.

[2] = tested on: MCF7 cells stably expressing DOX-inducible ER D538G; test: Dose response cell counting in MCF7 cells with DOX-inducible HA-tagged ER D538G; format: cell-based; conditions: for IC50: Homo sapiens, MCF7, 120 h, allele D538G, cell count day 5, full medium
Protocol: as §1, §2, §3

MCF7 Y537S = test: Mammary intraductal (MIND) xenograft model, MCF7 Y537S; format: in vivo, NSG mice
Protocol: MCF7 cells were engineered with CRISPR/Cas9 to express ERα with Y537S and D538G mutations. To mimic the natural environment of infiltrating ductal ERα^+ breast cancers, NSG™ mice were injected, via the nipple in the inguinal mammary glands, with three MCF7 cell variants: wild type MCF7 cells (MCF7 WT), MCF7 cells expressing Y537S mutant ERα (MCF7 Y537S), and MCF7 cells expressing D538G mutant ERα (MCF7 D538G), respectively. Prior to injection, the MCF7 cells were labeled with a luciferase reporter to monitor tumor growth in vivo using a Xenogen IVIS imager. […] FIG. 4 summarizes the experimental design.

ERα wild-type LBD = biological target: T1, ERα wild-type LBD (Homo sapiens, UniProt P03372, C381S/C417S/C530S/L536S); test: X-ray crystal structure of ligand-bound ERα wild-type LBD (L536S)
T1 construct: 6x-His-TEV (N, cleaved yes); made in house; host or cells: E. coli BL21(DE3)
T1 sequence (P03372 311-547 C381S/C417S/C530S/L536S limits assumed): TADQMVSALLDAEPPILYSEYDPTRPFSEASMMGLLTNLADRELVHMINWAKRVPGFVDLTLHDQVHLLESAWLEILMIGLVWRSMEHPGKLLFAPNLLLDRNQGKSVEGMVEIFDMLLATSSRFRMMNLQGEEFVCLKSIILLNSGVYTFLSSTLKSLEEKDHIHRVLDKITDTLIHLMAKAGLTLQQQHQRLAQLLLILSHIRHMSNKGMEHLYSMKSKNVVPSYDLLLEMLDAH
Protocol: 6x-His-TEV-Estrogen receptor alpha ligand binding domain containing C381S, C417S, C530S with L536S or Y537S mutations were expressed in E. coli BL21(DE3). The L536S mutant stabilizes the wild-type antagonist conformation and Y537S is an activating somatic mutation that has been identified in patients with acquired hormone resistance. Both proteins were purified using Ni-NTA resin, the 6x-His tag was cleaved using tev protease, removed using Ni-NTA resin, and a final purification was performed by passing the protein over a size exclusion column. The main peak was concentrated to 10 mg/mL and flash frozen.
Hanging drop vapor diffusion was used to crystallize the complexes. The L536S-Laso (lasofoxifene-bound ERα wild-type LBD) complex formed clear hexagonal crystals in 25% PEG 8,000, 200 mM MgCl2, HEPES pH 7.5 after two weeks at room temperature. The Y537S-Laso (lasofoxifene-bound ERα Y537S mutant LBD) complex formed rectangular crystals in 20% PEG 3.35K, 200 mM MgCl2, HEPES pH 6.5 after one week at room temperature.
Crystals were cryo-protected in 25% glycerol in mother liquor and flash frozen in liquid nitrogen. All x-ray crystallographic data sets were collected at the Advanced Photon Source. The L536S-Laso complex diffracted to 1.8 Å and the Y537S-Laso complex diffracted to 2.1 Å by cc^1/2 over 50%. Phaser was used for molecular replacement with 5UFX as the model. […]

[3] = tested on: ER+ HER2− advanced or metastatic breast cancer; test: Phase 2 clinical study, lasofoxifene versus fulvestrant; format: in vivo, postmenopausal women; conditions: 5 mg once daily oral
Protocol: The design of the study is outlined in FIG. 26. The study is an open label, randomized, multicenter study. Full recruitment into study occurs within twelve to sixteen months, with another twelve months of follow up before the primary outcome measure is analyzed. Screening tests are performed within thirty days of enrollment. Subjects are treated until documented disease progression.
As a comparison, fulvestrant is given to the breast cancer patient at 500 mg by intramuscular injection on day 1, day 15, and day 29, and then once every month.
The inclusion criteria include: • 1. Postmenopausal women with: a. locally advanced or metastatic breast cancer with either measurable or non-measurable lesions, b. progression on an AI in combination with a CDK 4/6 inhibitor for advanced breast cancer; • 2. If possible, a biopsy of metastatic breast cancer tissue will be obtained to confirm ER^+ and HER2^− disease; • 3. At least one or more of the following ESR1 mutations: Y537S, Y537N, Y537C, D538G, L536, E380Q, or S463P assessed from […] in blood; • 4. Received one chemotherapy regimen in the neo-adjuvant or adjuvant setting prior to entry into the trial; • 5. ECOG performance score of 0 or 1.

[4] = cited from earlier work
[5] = DOX-induced mutant ER, read-out: IC50 DOX (ESR mutation)
[6] = no DOX, read-out: IC50 No DOX (wt only)
[7] = MCF7 Y537S, 5 mg/kg and 10 mg/kg, after 70 days

In the case of Oc1ccc2c(c1)CC[C@H](c1ccccc1)[C@@H]2c1ccc(OCCN2CCCC2)cc1 [Lasofoxifene, lasofoxifene], the IC50 [1, 5] is reported as 4.1 nM, the IC50 [1, 6] is reported as 0.36 nM and the “anti-estrogenic activity, cell killing with increasing dose titration” value ([1]; Y537S stable transfectants, 10^−12 M to 10^−6 M) is reported as “kill the stably transfected cells”. The “anti-estrogenic activity, cell killing with increasing dose titration” value ([2]; D538G stable transfectants, 10^−12 M to 10^−6 M) was “kill the stably transfected cells”, the IC50 [2, 5] was 1 nM and the IC50 [2, 6] was 0.1 nM. The “tumor growth monitored by total flux” value (MCF7 Y537S; MCF7 Y537S mice, 10 mg/kg five times per week subcutaneous) was “most significantly inhibited”, the “liver metastasis, compared to fulvestrant” value (MCF7 Y537S; [7]) was “significantly more effective in reducing liver metastasis” and the “tumor weight, compared to fulvestrant” value (MCF7 Y537S; [7]) was “significantly more effective”. For the same compound, the “tumor growth measured by tumor weight, compared to vehicle control” value (MCF7 Y537S; MCF7 Y537S, 10 mg/kg, after 70 days of treatment) was “significantly inhibited”, the “tumor growth measured by tumor weight” value (MCF7 Y537S; MCF7 Y537S, all tested doses (1, 5, 10 mg/kg), after 70 days) was “significantly inhibited the growth of tumors at all tested doses” and the lung metastasis (MCF7 Y537S; MCF7 Y537S, lasofoxifene 5 mg/kg and 10 mg/kg, after 70 days) was “significantly reduce lung metastasis”. For the same compound, the “loop between helix 11 and helix 12 in the crystal structure” value (ERα wild-type LBD) was “does not disrupt the loop between helix 11 and helix 12”, the “median PFS compared to fulvestrant” value ([3]; D538G mutant patient population) was “increases the median PFS” and the “median PFS compared to fulvestrant” value ([3]; E380Q mutant patient population) was “increases the median PFS”. For the same compound, the “median PFS compared to fulvestrant” value ([3]; ESR1 mutation population) was “increases the median PFS”, the “median PFS compared to fulvestrant” value ([3]; L536 mutant patient population) was “increases the median PFS” and the “median PFS compared to fulvestrant” value ([3]; S463P mutant patient population) was “increases the median PFS”. The “median PFS compared to fulvestrant” value ([3]; Y537C mutant patient population) was “increases the median PFS”, the “median PFS compared to fulvestrant” value ([3]; Y537N mutant patient population) was “increases the median PFS” and the “median PFS compared to fulvestrant” value ([3]; Y537S mutant patient population) was “increases the median PFS”. For the same compound, the “risk of breast cancer” value ([4]; PEARL trial, post-menopausal women with osteoporosis) was “reduced the risk of breast cancer” and the risk of osteoporosis ([4]; double-blind, placebo-controlled, randomized PEARL trial) was “reduce the risk of osteoporosis”.
